The text below walks through data of PMC4052313, “A New Lyngbyatoxin from the Hawaiian Cyanobacterium Moorea producens” (Marine Drugs, 2014).

Read-outs that look alike come from different tables or passages of the source.

Data set [1] addresses T1, PKCδ-C1B peptide (Mus musculus, UniProt P28867).
T1 construct: made in house; host or cells: chemical peptide synthesis (no expression host)
Conditions: read-out: Ki for binding to PKCδ-C1B; cited from earlier work.

Data set [2] concerns shrimp Palaemon paucidens. In words: Crustacean lethality test, injection into abdominal cavity of shrimp. In kind it is in vivo. Conditions: for LD100 (lethal dose 100%): injection into abdominal cavity, monitored for 4 h. How it is done: The shrimp Palaemon paucidens (average weight, 0.5 g) was used for the crustacean lethality test. Tested samples were suspended with 1% Tween 20 (polyoxyethylene (20) sorbitan monolaurate). Two micro liter of each sample suspension was injected into the abdominal cavity of the shrimp (n = 3–5). The shrimp were monitored every 30 min for 4 h. Through the lethality tests, the lethal dose 100% values (LD100) were determined. One percent Tween 20 without sample was used as reference. LD100 was defined as weight of sample per unit weight of crustacean.

Data set [3] in a line: Cytotoxicity assay toward L1210 leukemia cells. In kind it is cell-based. The following applies: mouse. As to the method: The cytotoxic activities of compounds 1 and 2 were tested toward L1210 mouse leukemia cells. The detailed methods were reported previously. Differences with the reported methods were (a) samples were dissolved with methanol; and (b) the methanol dissolved samples were applied onto each well and air-dried before the addition of L1210 cells.

The target of data set [4] is T1, PKCδ-C1B peptide. In words: Competition binding assay with [3H]PDBu using synthetic PKCδ-C1B peptide. As to the method:
The binding of [^3H]PDBu to the PKCδ-C1B peptide was evaluated by the procedure of Sharkey and Blumberg with modifications as reported previously using 50 mM tris-maleate buffer (pH 7.4 at 4 °C), 13.8 nM PKCδ-C1B peptide, 20 nM [^3H]PDBu (18.7 Ci/mmol, Perkin-Elmer Life Sciences), 50 μg/mL 1,2-dioleoyl-sn-glycero-3-phospho-L-serine (Sigma, St. Louis, MO, USA), 3 mg/mL bovine γ-globulin (Sigma, St. Louis, MO, USA), and various concentrations of inhibitors. The concentration of the properly folded PKCδ-C1B peptide was estimated to be about 3 nM on the basis of Bmax values of Scatchard analyses reported previously. Binding affinity was evaluated based on the concentration required to cause 50% inhibition of the specific binding of [^3H]PDBu, the IC50, which was calculated with Microsoft Excel. The inhibition constant, Ki, was calculated by the method of Sharkey and Blumberg.

A further data set concerns HeLa cells. The following applies: read-out: IC50 (cytotoxic effects); cited from earlier work.
In a further data set the test system is ACC-MESO-1 cells. Conditions: read-out: IC50 (cytotoxic effects); cited from earlier work.

T1 sequence (P28867 231-281 limits assumed): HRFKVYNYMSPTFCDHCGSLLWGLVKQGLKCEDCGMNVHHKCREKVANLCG

Turning to `CO[C@@H](CC[C@H](C)[C@H]1O[C@@]23C[C@H](OC(=O)C[C@H]([C@@H](C)O)OC(=O)C[C@](O)(O2)[C@H](C)CC3(C)C)[C@@H]1C)c1cc(O)ccc1Br` [ATX, Aplysiatoxin], the inhibition constant (Ki) on PKCδ-C1B peptide [1] was 0.00041 µM.

Take `C=C[C@@](C)(CCC=C(C)C)c1ccc2c3c(c[nH]c13)C[C@@H](CO)NC(=O)[C@H](C(C)C)N2C` [compound 2, Lyngbyatoxin A]: the “Paralysis at dose less than the lethal amount” value in data set [2] (injection) is recorded as “Paralysis was not observed”. The “LD100 (lethal dose 100%)” value in data set [2] was found to be 5 mg/kg. In addition, the IC50 in data set [3] was 8.1 µM; in the data set with HeLa cells, 35 µM; with ACC-MESO-1 cells, 11 µM. For the same compound, the affinity at PKCδ-C1B peptide [4] corresponds to a Ki of 0.00011 µM.

For `C=C[C@@](C)(CCC=C(C)C)c1ccc2c3c(c[nH]c13)C[C@@H](CO)NC(=O)[C@@H](C(C)C)N2C` [compound 1, 12-Epi-lyngbyatoxin A], the “LD100 (lethal dose 100%)” value in data set [2] is given as 7.5 mg/kg. In addition, the Dose causing paralysis in data set [2] (injection, dose below the lethal dose) was found to be 0.9 mg/kg. In addition, it took 20.4 µM to reach half-maximal inhibition in data set [3] (IC50). Further, the Ki on PKCδ-C1B peptide [4] was 0.017 µM. The “Times lower binding affinity for PKC compared to lyngbyatoxin A (2)” value on PKCδ-C1B peptide [4] (PKCδ-C1B peptide, relative to compound 2) is “more than 100 times”.

With `CO[C@@H](CC[C@H](C)[C@H]1O[C@@]23C[C@H](OC(=O)C[C@H]([C@@H](C)O)OC(=O)C[C@](O)(O2)[C@H](C)CC3(C)C)[C@@H]1C)c1cccc(O)c1` [DATX, debromoaplysiatoxin], on PKCδ-C1B peptide [1], the Ki was 0.0002 µM.

As a reminder, the Ki is the dissociation constant of the complex between target and ligand, obtained from inhibition or displacement. What is called IC50 is the concentration needed to halve the response being measured.
